The source of these data is patent US20200188388A1, “METHODS AND COMPOSITIONS FOR PO[…] DRUGS AND REDUCING THEIR SIDE EFFECTS” (RVX THERAPEUTICS LTD., priority 2016, published 2020).

In data set [1] the test system is Wistar rats. Briefly: Rotenone-induced PD: severe oligokinesia in open field test. Type of data set: in vivo, rat. Conditions: oligokinesia ++-+++ in OF test. How it is done:
Locomotive activity of rats was tested in the “open field” test. […] Registration of horizontal and vertical locomotive activity was carried out in first day for rats with high selection locomotive activity (total walking time with not less than 12 seconds and the number of vertical uprights at least 4), 60 minutes before the first administration of rotenone. To identify the rotenone-induced oligokinesia in each experimental group the locomotive activity in the open field test was examined again 2 hours after the administration of rotenone on days 12 and 19 of the experiment.
(§1) Quantification of oligokinesia in points: 0 points—the highest horizontal activity (walking total time more than 12 seconds) and high vertical activity (number of vertical posts) more than 3; 1 point—reducing the horizontal activity (total walking time 7-11 seconds) and a decrease in vertical activity (the number of vertical columns 1-3); 2 points—a significant reduction in horizontal activity (total walking time 2-6 seconds) and the absence of vertical activity (the number of vertical columns 0-1); 3 points—the absence of horizontal activity (total walking time 0-1 seconds) and the absence of vertical activity (number of vertical columns 0). In each experimental group 120 minutes after administration of rotenone on days 12 and 19 of experiment the number of rats with severe oligokinesia (2-3 points) in % of the total number of rats in group was determined.
Locomotive activity of rats was tested in the “open field” test. […] Registration of horizontal and vertical locomotive activity was carried out in first day for rats with high selection locomotive activity (total walking time with not less than 12 seconds and the number of vertical uprights at least 4), 60 minutes before the first administration of rotenone. To identify the rotenone-induced oligokynesia in each experimental group the locomotive activity in the open field test was examined again 2 hours after the administration of rotenone on days 12 and 19 of the experiment.
as §1, with “of oligokynesia” for “of oligokinesia”

The subject of data set [2] is Wistar rats. Put plainly: Open field test, hypokinetic (sedative) or hyperkinetic action (analgesia examples). How it is done: (§2) To evaluate the hypokinetic (sedative) or hyperkinetic action effects of tested drugs an “open field” (OF) test was applied. In the OF test, the locomotive activity of rats is determined. Animals were placed in the center of square of the illuminated field (1 meter×1 meter) for 3 minutes and the mobility time was recorded in seconds (horizontal activity). […] To quantify the locomotive activity for each dose of test drug(s) an average horizontal activity was calculated.
as §2
To evaluate the hypokinetic (sedative) effects of drugs, “open field” (OF) test was applied. In the OF test, the locomotive activity of rats is determined. Animals were placed in the center of square of the illuminated field (1 meter×1 meter) for 3 minutes and the mobility time was recorded in seconds (horizontal activity). […] To quantify the locomotive activity for each dose of test drug(s), an average horizontal activity was calculated.
Tail-Flick and Open Field Tests were Conducted as Detailed Above.
as §2

The next data set concerns male Wistar rats. Briefly: Opioid hyperalgesia in tail and paw withdrawal tests (% rats).

`CC12CC3CC(C)(C1)CC(N)(C3)C2` [Memantine, memantine]: the “Severe oligokinesia (% of group)” value with Wistar rats [1] (Day 12, memantine 5 mg/kg oral) was 50 % of group; with Wistar rats [1] (Day 19, memantine 5 mg/kg oral) it was 50 % of group. The Sedation in the data set with Wistar rats [2] (I.M., doses by row as E3) is reported as 0 % of Rats. Also, in the data set on Wistar rats [2] (unmarked cells, doses as E6), the Hyperkinesia or sedation turned out to be 0 % rats. The molecule further came in with a Hyperkinesia or sedataion with Wistar rats [2] (unmarked cells, doses as E12) of 0 % rats. For the same molecule, the Hyperkinesia with Wistar rats [2] (unmarked cells, doses as E48) is recorded as 0 % rats; in the data set on Wistar rats [2] (unmarked cells, doses as E54) it was 0 % rats. Besides, the Hyperalgesia in the data set with male Wistar rats (doses as E6), in the data set with male Wistar rats (doses as E12), in the data set on male Wistar rats (doses as E48) and in the data set with male Wistar rats (doses as E54) was 0 % rats throughout.
With `N[C@@H](Cc1ccc(O)c(O)c1)C(=O)O` [Levodopa, L-3,4-dihydroxyphenylalanine], the “Severe oligokinesia (% of group)” value in the data set with Wistar rats [1] (Day 12, levodopa 10 mg/kg oral) was 86 % of group; in the data set on Wistar rats [1] (Day 12, levodopa 20 mg/kg oral), 50 % of group; with Wistar rats [1] (Day 19, levodopa 10 mg/kg oral), 100 % of group; in the data set on Wistar rats [1] (Day 19, levodopa 20 mg/kg oral), 63 % of group.
